Experimental data taken from patent US20110072525A1, “COMPOSITIONS AND METHODS FOR THE TREATMENT OF PSYCHIATRIC AND NEUROLOGICAL DISORDERS” (priority 2009, published 2011).

Tested on: wild type C57BL6 mice
Assay: Prepulse inhibition (PPI) of the acoustic startle response, control experiment
Type: in vivo
Details: wild type C57BL6 mice injected with MK-801 1 mg/kg; same PPI protocol; data not shown
Description: Prepulse inhibition (PPI) of the acoustic startle response. Prepulse inhibition (PPI) of the acoustic startle response was measured as described previously with some minor modifications (E. S. Emamian et al., 2004b). Adult homozygous mutant mice and their wild-type littermates were housed individually for 2 weeks prior to testing. Testing was conducted in a SR-Lab system (San Diego Instruments). Response amplitude was calculated as the maximum response level occurred during the 100 ms recording. Because animals can habituate to the prepulse, and to the startle stimulus, the number of trials was kept to minimum. Immediately after being placed in the chamber, the animal was allowed to acclimate for 5 min which background noise (86 dB) continually present. The animal then received 10 sets of the following 5 types of trials, distributed pseudo-randomly, and separated by 15 sec inter-trial intervals: Trial 1: 40 ms, 120 dB noise burst alone; Trial 2-4: 120 dB startle stimuli preceded 100 ms by one of the three 20 ms prepulses: 90 dB, 94 dB or 98 dB; Trial 5: no-stimulus/background noise alone (86 dB). […] Data was analyzed using ANOVA with repeated measures.

C[C@]12N[C@H](Cc3ccccc31)c1ccccc12 [MK-801]
Prepulse inhibition (PPI) of the acoustic startle response: significant decrease in PPI
